Test results taken from patent publication US10517867B2, “Posaconazole derivative, pharmaceutical composition and use thereof” (priority 2016, dated 2019).
Like-named read-outs stand apart in the source and are kept apart here.

Assays:
[1] = In vitro metabolic stability in human plasma; format: in vitro ADME; conditions: human, plasma, 37° C., 10 μM compound, read-out: Human plasma T1/2
In short: (§1)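 Human or rat plasma, preincubated 5 min at 37 °C, or intestinal S9 at 37 °C, spiked from 1 mM stock; triplicates sampled at 1, 2, 5, 15 and 30 min into cold internal standard. HPLC quantitation; half-life by non-compartmental analysis.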

[2] = In vitro metabolic stability in human intestine S9; format: in vitro ADME; conditions: human; 37° C., 10 μM compound, 1 mg/mL S9, NADPH regeneration system; read-out: Human intestine S9 T1/2
In short: as §1

[3] = In vitro metabolic stability in rat plasma; format: in vitro ADME; conditions: rat, plasma, 37° C., 10 μM compound, read-out: Rat plasma T1/2
In short: as §1

[4] = In vitro metabolic stability in rat intestine S9; format: in vitro ADME; conditions: rat, pH 7.4; 37° C., 10 μM compound, 1 mg/mL S9, NADPH regeneration system; read-out: Rat intestine S9 T1/2
In short: as §1

[5] = system: Candida albicans ATCC10231; assay: Systemic fungal infection in mice, intragastric administration; format: in vivo, ICR mice; conditions: Candida albicans, ATCC10231, po
[6] = physchem; conditions: 25 °C, water, thermodynamic from solid
[7] = Pharmacokinetics after single intravenous administration to rats; format: in vivo, SD rats; conditions: posaconazole in saline solution as a control, tail vein
Procedure: Administration amount: 2.5 mg/kg (calculated as posaconazole)
Administration volume: 2.5 ml/kg
Drug concentration: 1 mg/mL
Administration vehicle: normal saline
Administration route: tail vein injection
Experimental animals: SD rats, SPF grade, weighing 180-220 g, equal amount of male and female. Rats were randomly divided into groups of 6 with 3 males and 3 females.
Experimental protocol: blood samples were collected at different time points after tail vein administration and plasma posaconazole concentrations were measured.

[8] = Determination of solubility in deionized water (HPLC, external standard); conditions: 25 °C, water, thermodynamic from solid

Row | Compound | half-life at 10 µM [1] | half-life at 10 µM [2] | half-life at 10 µM [3] | half-life at 10 µM [4] | responders at 20 mg/kg ([5]; 24 h, read-out: survival rate of mice, day 1, 20 mg/kg intragastric once daily for 5 days, day 1) | responders at 20 mg/kg ([5]; 48 h, read-out: survival rate of mice, day 2, 20 mg/kg intragastric once daily for 5 days, day 2) | responders at 20 mg/kg ([5]; 72 h, read-out: survival rate of mice, day 3, 20 mg/kg intragastric once daily for 5 days, day 3) | responders at 20 mg/kg ([5]; 96 h, read-out: survival rate of mice, day 4, 20 mg/kg intragastric once daily for 5 days, day 4) | responders at 20 mg/kg ([5]; 120 h, read-out: survival rate of mice, day 5, 20 mg/kg intragastric once daily for 5 days, day 5) | responders at 20 mg/kg ([5]; 144 h, read-out: survival rate of mice, day 6, 20 mg/kg intragastric once daily for 5 days, day 6) | responders at 20 mg/kg ([5]; 168 h, read-out: survival rate of mice, day 7, 20 mg/kg intragastric once daily for 5 days, day 7) | Solubility [6] | plasma posaconazole detection [7] | solubility at 30 min [8]
1 | CC[C@@H](C(C)OC(=O)OC(C)OC(=O)CCOP(=O)([O-])[O-])n1ncn(-c2ccc(N3CCN(c4ccc(OC[C@@H]5CO[C@@](Cn6cncn6)(c6ccc(F)cc6F)C5)cc4)CC3)cc2)c1=O.[Na+].[Na+] (some centres unmarked) [ST0066] | 11.3 ± 2.27 min | 40.4 ± 5.21 min | 12.6 ± 4.54 min | 36.6 ± 8.66 min | 80% | 80% | 70% | 70% | 70% | 60% | 60% | > 50 mg/mL |  | 
2 | CC[C@@H]([C@H](C)O)n1ncn(-c2ccc(N3CCN(c4ccc(OC[C@@H]5CO[C@@](Cn6cncn6)(c6ccc(F)cc6F)C5)cc4)CC3)cc2)c1=O [Posaconazole, posaconazole] |  |  |  |  |  |  |  |  |  |  |  |  | not detected | < 1000 µg/mL
